Legend:
Assay in all cases: relative viability (nuclei count vs DMSO), 5 days (fraction); higher = more cells survive
[1] = compound: Cc1cnc(CNC(=O)c2c(=O)c3ccc(N4CCCN(C)CC4)nc3n3c2sc2ccccc23)cn1 [CX-5461] + CC(=O)Nc1cccc(-n2c(=O)n(C3CC3)c(=O)c3c(Nc4ccc(I)cc4F)n(C)c(=O)c(C)c32)c1 [Trametinib] (partner 0.02 µM)
How it was run: (§1)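 Relative viability was taken as the ratio of nuclei in treated wells to nuclei in vehicle wells. Lung cancer cell lines in 1536-well plates received compounds by pin tool one day after seeding, either one drug alone or a fixed anchor-drug dose plus five library-drug doses (not always all listed) in √10 steps. Nuclei were counted on 4× images after 5 days of treatment, and values are medians of duplicate plates.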

[2] = compound: Cc1cnc(CNC(=O)c2c(=O)c3ccc(N4CCCN(C)CC4)nc3n3c2sc2ccccc23)cn1 [CX-5461] + CC1(C)CCC(c2ccc(Cl)cc2)=C(CN2CCN(c3ccc(C(=O)NS(=O)(=O)c4ccc(N[C@H](CCN5CCOCC5)CSc5ccccc5)c(S(=O)(=O)C(F)(F)F)c4)cc3)CC2)C1 [Navitoclax] (partner 0.5 µM)
How it was run: as §1

[3] = compound: Cc1cnc(CNC(=O)c2c(=O)c3ccc(N4CCCN(C)CC4)nc3n3c2sc2ccccc23)cn1 [CX-5461] + COc1cc2c(Oc3ccc(NC(=O)C4(C(=O)Nc5ccc(F)cc5)CC4)cc3F)ccnc2cc1OCCCN1CCOCC1 [Foretinib] (partner 0.25 µM)
How it was run: as §1

[4] = compound: Cc1cnc(CNC(=O)c2c(=O)c3ccc(N4CCCN(C)CC4)nc3n3c2sc2ccccc23)cn1 [CX-5461] + Cc1cc(Nc2cc(N3CCN(C)CC3)nc(Sc3ccc(NC(=O)C4CC4)cc3)n2)n[nH]1 [Tozasertib] (partner 0.1 µM)
How it was run: as §1

Cell Line: UMC-11
- relative viability ([1]; first compound 0.01 µM): 0.685
- relative viability ([1]; first compound 0.03162 µM): 0.769
- relative viability ([1]; first compound 0.1 µM): 0.762
- relative viability ([1]; first compound 0.3162 µM): 0.317
- relative viability ([1]; first compound 1 µM): 0.249
- relative viability ([2]; first compound 0.01 µM): 0.319
- relative viability ([2]; first compound 0.03162 µM): 0.294
- relative viability ([2]; first compound 0.1 µM): 0.302
- relative viability ([2]; first compound 0.3162 µM): 0.282
- relative viability ([2]; first compound 1 µM): 0.23
- relative viability ([3]; first compound 0.01 µM): 1.02
- relative viability ([3]; first compound 0.03162 µM): 1.08
- relative viability ([3]; first compound 0.1 µM): 0.906
- relative viability ([3]; first compound 0.3162 µM): 1.15
- relative viability ([3]; first compound 1 µM): 0.336
- relative viability ([4]; first compound 0.01 µM): 0.189
- relative viability ([4]; first compound 0.03162 µM): 0.201
- relative viability ([4]; first compound 0.1 µM): 0.204
- relative viability ([4]; first compound 0.3162 µM): 0.198
- relative viability ([4]; first compound 1 µM): 0.243

— the supplement of paper PMC10307832
